Measurements taken from PMC9958325 (Nature Communications, 2023).
Several values for one entry are separate records, joined by “and”; a condition that tells them apart may be missing. Equal entries are not always repeated. Where two headings read alike, the source gives them in different places.

Experiments:
[1] = system: SARS-CoV-2 UT-NCD1757-1N/ο BA.2.75; assay: microbe, parasite or virus in culture; type: cell-based
[2] = Pharmacokinetic study in PXB-mice (human liver-chimeric); conditions: for Vdss / AUC: mean ± S.E.; for AUC: n=3

## CC(C)(C)[C@H](NC(=O)C(F)(F)F)C(=O)N1C[C@H]2[C@@H]([C@H]1C(=O)N[C@@H](C[C@@H]1CCNC1=O)C(=O)c1nc3c(F)cccc3s1)C2(C)C [TKB245]
[1]; read-out: EC50 against UT-NCD1757-1N/ο BA.2.75
  EC50: 49 ± 5 nM
[1]; read-out: EC50 ο BA2.75, Average
  EC50: 49.3 nM
[1]; read-out: EC50 ο BA2.75, individual assays
  EC50: 55 nM and 44 nM
[2]; N = 3 male PXB-mouse, 10 mg/kg p.o.
  Cmax: 1,901¶ ng/mL
[2]; N = 3 male PXB-mouse, 10 mg/kg, oral (p.o.) value for TKB245
  T1/2: 3.82¶ h
[2]; PXB-mice, 10 mg/kg i.v.
  t1/2: 1.25 h
  Vdss: 30.2 ± 3.81 mL/kg
  AUC: 10.7 ± 0.54 µg·h/mL
[2]; PXB-mice, 10 mg/kg p.o.
  Vdss: 194.1 ± 35.43 mL/kg
  AUC: 5.12 ± 0.43 µg·h/mL
[2]; PXB-mice, i.v. 10 mg/kg, 10 min, individual mice
  Plasma concentration: 8436.5 ng/mL
[2]; PXB-mice, i.v. 10 mg/kg, 10 min, individual mice, listed as TKB0245, 10 mg/kg
  Plasma concentration: 8433.5 ng/mL and 10627.1 ng/mL
[2]; PXB-mice, i.v. 10 mg/kg, 0.17 hr, individual mice, listed as TKB0245, 10 mg/kg
  Plasma concentration: 8440 ng/mL and 8430 ng/mL and 10630 ng/mL
[2]; PXB-mice, i.v. 10 mg/kg, 60 min, individual mice, listed as TKB0245, 10 mg/kg
  Plasma concentration: 2816 ng/mL and 2507.3 ng/mL and 3230 ng/mL
[2]; PXB-mice, i.v. 10 mg/kg, 1 hr, individual mice, listed as TKB0245, 10 mg/kg
  Plasma concentration: 2820 ng/mL and 2510 ng/mL and 3230 ng/mL
[2]; PXB-mice, i.v. 10 mg/kg, 240 min, individual mice, listed as TKB0245, 10 mg/kg
  Plasma concentration: 47 ng/mL and 52.3 ng/mL and 95 ng/mL
[2]; PXB-mice, i.v. 10 mg/kg, 4 hr, individual mice, listed as TKB0245, 10 mg/kg
  Plasma concentration: 0.05 µg/ml (2×) and 0.09 µg/ml
[2]; PXB-mice, i.v. 10 mg/kg, 480 min, individual mice, listed as TKB0245, 10 mg/kg
  Plasma concentration: 10.4 ng/mL and 14.8 ng/mL and 20 ng/mL
[2]; PXB-mice, i.v. 10 mg/kg, 8 hr, individual mice, listed as TKB0245, 10 mg/kg
  Plasma concentration: 0.01 µg/ml (2×) and 0.02 µg/ml
[2]; PXB-mice, i.v. 10 mg/kg, 1440 min, individual mice, listed as TKB0245, 10 mg/kg
  Plasma concentration: 13.6 ng/mL and 11.6 ng/mL and 12.4 ng/mL
[2]; PXB-mice, i.v. 10 mg/kg, 24 hr, individual mice
  Plasma concentration: 10 ng/mL
[2]; PXB-mice, p.o. 10 mg/kg, 10 min, individual mice, listed as TKB0245, 10 mg/kg
  Plasma concentration: 914.5 ng/mL and 1553.1 ng/mL and 2872.3 ng/mL
[2]; PXB-mice, p.o. 10 mg/kg, 0.17 hr, individual mice, listed as TKB0245, 10 mg/kg
  Plasma concentration: 910 ng/mL and 1550 ng/mL and 2870 ng/mL
[2]; PXB-mice, p.o. 10 mg/kg, 60 min, individual mice, listed as TKB0245, 10 mg/kg
  Plasma concentration: 1278.1 ng/mL and 1343.7 ng/mL and 1794.3 ng/mL
[2]; PXB-mice, p.o. 10 mg/kg, 1 hr, individual mice, listed as TKB0245, 10 mg/kg
  Plasma concentration: 1280 ng/mL and 1340 ng/mL and 1790 ng/mL
[2]; PXB-mice, p.o. 10 mg/kg, 240 min, individual mice, listed as TKB0245, 10 mg/kg
  Plasma concentration: 152.9 ng/mL and 98.8 ng/mL and 128.8 ng/mL
[2]; PXB-mice, p.o. 10 mg/kg, 4 hr, individual mice, listed as TKB0245, 10 mg/kg
  Plasma concentration: 150 ng/mL and 100 ng/mL and 130 ng/mL
[2]; PXB-mice, p.o. 10 mg/kg, 480 min, individual mice, listed as TKB0245, 10 mg/kg
  Plasma concentration: 41.6 ng/mL and 34.4 ng/mL and 32.8 ng/mL
[2]; PXB-mice, p.o. 10 mg/kg, 8 hr, individual mice, listed as TKB0245, 10 mg/kg
  Plasma concentration: 0.04 µg/ml and 0.03 µg/ml (2×)
[2]; PXB-mice, p.o. 10 mg/kg, 1440 min, individual mice, listed as TKB0245, 10 mg/kg
  Plasma concentration: 26 ng/mL and 21.9 ng/mL and 27.9 ng/mL
[2]; PXB-mice, p.o. 10 mg/kg, 24 hr, individual mice, listed as TKB0245, 10 mg/kg
  Plasma concentration: 0.03 µg/ml (2×) and 0.02 µg/ml
[2]; i.v., 10 min, individual animals (3 per time point), LC/MS/MS, listed as TKB0245
  Plasma concentration: 8436.54 ng/mL and 8433.45 ng/mL and 10625.21 ng/mL
[2]; i.v., 60 min, individual animals (3 per time point), LC/MS/MS, listed as TKB0245
  Plasma concentration: 2816.02 ng/mL and 2507.33 ng/mL and 3228.12 ng/mL
[2]; i.v., 240 min, individual animals (3 per time point), LC/MS/MS, listed as TKB0245
  Plasma concentration: 47.02 ng/mL and 52.34 ng/mL and 93.04 ng/mL
[2]; i.v., 480 min, individual animals (3 per time point), LC/MS/MS, listed as TKB0245
  Plasma concentration: 10.40 ng/mL and 14.76 ng/mL and 18.04 ng/mL
[2]; i.v., 1440 min, individual animals (3 per time point), LC/MS/MS, listed as TKB0245
  Plasma concentration: 13.63 ng/mL and 11.63 ng/mL and 10.43 ng/mL
[2]; male PXB-mouse 10 mg/kg i.v. and p.o., dose-normalized AUC ratio, 10 mg/kg
  Oral F: 47.7% and 48% and 48¶ %
[2]; p.o., 10 min, individual animals (3 per time point), LC/MS/MS, listed as TKB0245
  Plasma concentration: 914.50 ng/mL and 1553.11 ng/mL and 2872.30 ng/mL
[2]; p.o., 60 min, individual animals (3 per time point), LC/MS/MS, listed as TKB0245
  Plasma concentration: 1278.12 ng/mL and 1343.67 ng/mL and 1794.27 ng/mL
